Here are results for 4 compounds from patent publication US8617563B2, “Antichlamydial agents” (Duke University, priority 2011, dated 2013).

Where a SMILES comes first, the peptide text is derived from it. [ ]: non-standard residue; d: D form. The star is where a group is joined. 2Abz = Nc1ccccc1C(=O)O; Cbz = O=C(OCc1ccccc1)*; CH2F = FC*

The target in assay [1] is T1, CPAF (Chlamydia trachomatis serovar D, UniProt O84866). Nature of the assay: HPLC-based CPAF enzyme kinetics with model substrate. The assay is classed as biochemical, C. trachomatis. More on the design: 6xHis; made in house; host or cells: E. coli BL21 (DE3), plasmid pET30b-CPAF. The settings on record: CPAF 62.5 nM, substrate 0-6 mM, 25° C. The procedure:
Proteolytic enzyme kinetics of CPAF were measured using an HPLC-based assay that quantifies the cleavage of an Abz-tagged model CPAF substrate derived from human vimentin:
Standard assays were performed in a total volume of 100 μL containing Assay Buffer (150 mM NaCl, 50 mM Tris pH 7.5), CPAF (62.5 nM), and varying concentrations (0-6 mM) of CPAF substrate (SEQ ID NO:9). Reactions were initiated by the addition of enzyme and incubated at 25° C. for 90 seconds. Incubation was followed by removal of 80 μL aliquots and quenched by the addition of 40 μL 1.2 M HCl. […] Abz-containing peptides were detected by fluorescence emission at 420 nm, and the composition and identity of each product were confirmed by mass spectrometry by LCMS. […] The percentage of substrate converted to product was calculated from the HPLC data by integrating the area under the peaks in the chromatograms using PeakFit v4.11 (available from Systat Software), followed by analysis in Grafit 6.0 (available from Erithacus Software) using the following equation: […]
Target sequence in this assay (O84866 276-601): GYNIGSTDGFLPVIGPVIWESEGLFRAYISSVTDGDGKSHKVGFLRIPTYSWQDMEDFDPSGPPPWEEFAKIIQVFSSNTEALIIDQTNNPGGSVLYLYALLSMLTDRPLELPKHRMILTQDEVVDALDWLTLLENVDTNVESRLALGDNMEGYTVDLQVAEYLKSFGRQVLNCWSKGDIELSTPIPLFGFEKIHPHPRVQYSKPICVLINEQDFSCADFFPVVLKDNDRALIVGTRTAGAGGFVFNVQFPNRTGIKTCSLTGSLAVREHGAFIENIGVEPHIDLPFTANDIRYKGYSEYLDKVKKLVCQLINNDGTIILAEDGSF
Target sequence in this assay (O84866 1-234, added parts left off): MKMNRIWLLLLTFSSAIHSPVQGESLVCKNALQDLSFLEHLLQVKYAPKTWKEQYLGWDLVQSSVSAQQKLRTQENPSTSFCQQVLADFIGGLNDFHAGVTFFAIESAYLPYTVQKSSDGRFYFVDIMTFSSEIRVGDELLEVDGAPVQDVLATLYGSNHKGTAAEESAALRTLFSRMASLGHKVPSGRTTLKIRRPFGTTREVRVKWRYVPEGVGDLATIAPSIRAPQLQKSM

Assay [2] concerns the target T1, CPAF. The assay is classed as biochemical, C. trachomatis. More on the design: 6xHis; made in house; host or cells: E. coli (pET30b). The settings on record: GST-chlamydial substrates in presence of peptides. The procedure: FIG. 4 depicts (A) Recombinant Chlamydia ORFs were tested for sensitivity to host and bacterial derived proteases. […] Purified his-tagged CPAF was incubated with GST-tagged chlamydial substrates at 37° C. for 20 min with increasing amounts of lactacystin. Cleavage products were run on an SDS PAGE gel and visualized with Coomassie blue staining. (C) Schematic summary of CPAF targets. […] Membranes from Chlamydia-infected HeLa cells were harvested and purified at 0, 24, 36 and 48 hours post-infection, and the abundance of the chlamydial proteins Ct005, IncC and IncD were monitored with specific antibodies. Na/K ATPase and IncG served as host and bacterial-loading controls, respectively.
Cytosols from Chlamydia-infected HeLa cells (40 hrs) or recombinant his-tagged CPAF were pre-treated with rabbit polyclonal anti-CPAF or anti-IncA antisera, and incubated with GST-tagged Chlamydia proteins for 20 min at 37° C. […] Three example proteins shown include a type-III secretion (T3S) core component (CdsQ) a T3S chaperone (Mcsc) and a T3S needle component (Ct584). Processing of recombinant proteins in A-B were monitored by immunoblot analysis with specific antibodies. (C) Protease inhibitor profile of recombinant CPAF. Example shown for the chlamydial substrate GST-IncC. Degradation products were visualized by SDS-PAGE followed by staining with Coomassie blue. […]
Uninfected and HeLa cells pre-infected with L2 for 30 hrs were treated with inhibitory peptides and infected with EBs for 10 min Tarp translocation was indirectly visualized with an anti-phosphotyrosine antibody (A) and quantified by counting 50 separate cells (B). The stability of newly translocated Tarp was assessed by infecting cells as in (A) but with S^35-labeled EBs, followed by sequential immunoprecipitation of Tarp and MOMP and Phosphoimager analysis of precipitated material (C (I-IV)). […] IC50 values were determined by assessing CPAF cleavage of an Abz-tagged CPAF substrate (SEQ ID NO:9) by HPLC. […] Extracellular bacteria were determined. […] The number of internalized EBs was quantified per cell (H). […]
Target sequence in this assay (O84866 1-234, added parts left off): as above
Target sequence in this assay (O84866 276-601): as the sequence (O84866 276-601) above

The subject of assay [3] is epithelial cells infected with C. trachomatis. Nature of the assay: Host cell death (condensed nuclei) in C. trachomatis infected cells. The assay is classed as cell-based. The settings on record: caspase inhibitor added before the CPAF inhibitor peptide. The procedure: FIG. 11 depicts (A) that inhibiting CPAF activity induces host cell death. The indicated peptides (anti-CPAF peptide refers to SEQ ID NO:7) were added to infected cells 12 hpi and the percentage of infected cells with condensed nuclei was quantified at the indicated times. (B-C) Inhibition of CPAF activity induces apoptosis. Infected cells were treated with peptides and the percentage of AnnexinV-FITC positive (propidium iodide (PI) negative) was determined by flow cytometry (B). In parallel samples, cleavage of Caspase-3, a hallmark of apoptosome activation, was monitored by immunoblot analysis. Actin and MOMP are host and bacterial loading controls respectively. Staurosporine (2 μM)-treatment was used as a positive control and the pan-caspase inhibitor ZVAD-FMK were used as controls. (D) Cell death is blocked by a pan-Caspase inhibitor. Infected cells were treated as in (A) in the presence or absence of ZVAD-FMK, labeled with PI and analyzed by flow cytometry. Cells pre-treated with ZVAD-FMK and the control peptide lacked PI staining.
FIG. 12 depicts (A) low-magnification view of C. trachomatis LGV-L2 infected HeLa monolayers (30 h) treated with SEQ ID NO:7 or SEQ ID NO:11 peptides. […] HeLa cells infected with C. muridarum were treated with Ac-YVAD-CMK at 2 hpi, SEQ ID NO:7 peptide or SEQ ID NO:11 control peptide at 12 hpi and the percentage of infected cells with condensed nuclei was assessed at 48 hpi (F). […] The percentage of infected cells with condensed nuclei was assessed at 48 hpi (G). […] Cell death in infected and uninfected cells treated with CPAF inhibitory peptides or control peptides was determined by counting the number of condensed nuclei of ˜1000 cells.
FIG. 13 depicts (A) that Caspase-1 inhibitors block Chlamydia-mediated cell death. […] Cells were fixed and the percentage of cells with condensed nuclei determined at 24 hpi. […] Infected cells were labeled with a cell-permeable fluorescent substrate of Caspase-1 and treated with inhibitory peptides, and Caspase-1 activity was monitored by flow cytometry. […]

The test system of assay [4] is C. muridarum. Nature of the assay: C. muridarum growth in HeLa cells (recovered IFUs). Particulars: caspase-1 inhibitor at 2 hpi. The assay is classed as cell-based. The procedure: Cells were infected with an MOI of 1 and treated with CPAF inhibitor (SEQ ID NO:7) or control (SEQ ID NO:11) peptides at 12 hpi, fixed at 24 hpi and analyzed by IF with anti-L2 polyclonal antisera. Inclusion size was determined by measuring the inclusion diameter in μm by confocal microscopy of 50 infected cells. The number of cells with fragmented inclusions was determined by counting the number of infected cells out of 50 with more than one inclusion. (C) Sequence alignment and % sequence identify of full length CPAF and predicted inhibitory peptide sequence between C. trachomatis serovar LGV-L2, Chlamydia muridarum, and Chlamydophila caviae was determined using Geneious software (available at the Geneious website). […] GPIC or C. muridarum infected whole cell protein lysate was preincubated with SEQ ID NO:7 peptide or SEQ ID NO:11 control peptide, mixed with GST-IncC at 37° C., resolved by SDS-PAGE and stained with Coomassie blue. […] Inhibition of C. muridarum (E) and C. ceviae (F) growth was determined by counting the number of recovered IFUs. […] Inclusions were detected by IF with anti-LGV-L2 (A, B, E) antisera or anti-chlamydial LPS (F) monoclonal antibodies, and host nuclei sere detected by staining.

With `CC(C)C[C@H](NC(=O)[C@H](CCCNC(=N)N)NC(=O)[C@@H](NC(=O)c1ccccc1N)C(C)C)C(=O)N[C@@H](CCCNC(=N)N)C(=O)N[C@@H](CO)C(=O)N[C@@H](CO)C(=O)N[C@H](C(=O)N1CCC[C@H]1C(=O)NCC(=O)N[C@H](C(N)=O)C(C)C)C(C)C` [SEQ ID NO:9, Abz-V-R-L-R-S-S-V-P-G-V-NH2] (H-[2Abz]VRLRSSVPGV-NH2), the “kcat of CPAF proteolysis of model substrate” value in assay [1] was determined as 13.2 s⁻¹. In assay [1] (read-out: KM of CPAF proteolysis of model substrate), the Km was 880 µM.

Consider “H-NFALSHFRLPLSTYKEMPYVSHWAGRRRRRRRRR-NH2 [SEQ ID NO:11, reference compound]”, for which, in assay [2], the “Inhibition of degradation of CPAF substrates in vitro” value is given as “no CPAF inhibitory activity in vitro”.

Consider `COC(=O)C[C@H](NC(=O)[C@H](C)NC(=O)[C@@H](NC(=O)OCc1ccccc1)C(C)C)C(=O)CF` [ZVAD-FMK] (Cbz-Val-Ala-Asp(OMe)-CH2F), for which, in assay [3], the “Block of death of Chlamydia-infected cells treated with SEQ ID NO:7” value is listed as “efficiently blocked the death”.

Take `CC(=O)N[C@@H](Cc1ccc(O)cc1)C(=O)N[C@H](C(=O)N[C@@H](C)C(=O)N[C@@H](CC(=O)O)C(=O)CCl)C(C)C` [Ac-YVAD-CMK, reference compound]: the “Rescue of C. muridarum growth defect in cells treated with SEQ ID NO:7” value in assay [4] is listed as “does not rescue the growth defect”. For the same compound, the “Block of death of Chlamydia-infected cells treated with SEQ ID NO:7” value in assay [3] is listed as “efficiently blocked the death”.

The term Km denotes the substrate concentration at which the rate is half of its maximum.
